Experimental data taken from the supplement of paper PMC11208160.

assay: recombinant UMI read abundance after kanamycin selection (control-corrected) (log10(CPM+1)); higher = more efficient recombination; extreme values may be limits of the assay; sequences stand for … in AGTGCAGAGAAAATCGGCCAGTTTTCTCTGCCTGCAGTCCGCATGCCGTGGGACCCCTTGGGTTCTAACCTGTTGCCTAGATTTATGCAGCGGACTGCCTTTCTCCCAAAGTGATAAACCGG…AGGTTGGTTTCACT; site = the 11-nt donor
How it was run: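 In Escherichia coli, a pool of donor and donor-binding-loop pairs, each with a 12-nt UMI, was tested for the IS621 bridge recombinase. Plating was on IPTG (0.07 mM) plus kanamycin, or without selection, in two replicates. Recombinant UMIs were amplified by PCR across the donor–target junction and sequenced, and counts were reported as log10(CPM+1) after averaging and control-derived scaling.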
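Further: IS621 bridge recombinase in Escherichia coli cells against a fixed T5 target plasmid.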

Sequence	recombinant UMI read abundance (log10)
CGAGCAGCATGGACCGGTTTTCCCGGTAATCCGTATTTGCT (site CTAGCAGCTAG)	0.852
CGAGCATCATGGACCGGTTTTCCCGGTAATCCGTATTTGCA (site CGAGCATCTTG)	2.46
CGAGCATCATGGACCGGTTTTCCCGGTAATCCGTATTTGCA (site CGATCATCTAG)	0
CGAGCATCATGGACCGGTTTTCCCGGTAATCCGTATTTGTT (site CGAGCATCTAA)	2.61
CGAGCATCATGGACCGGTTTTCCCGGTAATCCGTATTTGTT (site CGATCATCTAG)	0
CGAGCCTCATGGACCGGTTTTCCCGGTAATCCGTATTTGGC (site CGAGCCTCTGC)	2.21
CGAGCTTCATGGACCGGTTTTCCCGGTAATCCGTATTTGAA (site CGAGCTTCTTT)	1.88
CGAGGACCATGGACCGGTTTTCCCGGTAATCCGTATTTGAG (site CGAGGACCTCA)	0.015
CGAGGACCATGGACCGGTTTTCCCGGTAATCCGTATTTGAG (site CGAGGACCTCC)	0
CGAGGACCATGGACCGGTTTTCCCGGTAATCCGTATTTGAG (site CGAGGACCTCG)	0.00506
CGAGGACCATGGACCGGTTTTCCCGGTAATCCGTATTTGAG (site CGAGGACCTCT)	0.00302
CGAGGAGCATGGACCGGTTTTCCCGGTAATCCGTATTTGGA (site CGAGGAGCTTC)	1.57
CGAGGATCATGGACCGGTTTTCCCGGTAATCCGTATTTGAC (site CGAGGATCTGT)	2.99
CGAGGATCATGGACCGGTTTTCCCGGTAATCCGTATTTGAC (site CTAGTATCTGT)	0
CGAGGGCCATGGACCGGTTTTCCCGGTAATCCGTATTTGCA (site CGAGGGCCTTG)	0.708
CGAGGGCCATGGACCGGTTTTCCCGGTAATCCGTATTTGGG (site CGAGGACCTCC)	0.0191
CGAGGGCCATGGACCGGTTTTCCCGGTAATCCGTATTTGGG (site CGAGGCCCTCC)	0.0184
CGAGGGCCATGGACCGGTTTTCCCGGTAATCCGTATTTGGG (site CGAGGGCCTCC)	0.0164
CGAGGGCCATGGACCGGTTTTCCCGGTAATCCGTATTTGGG (site CGAGGTCCTCC)	0.0269

Sequence	recombinant UMI read abundance (log10)
CGAGTACCATGGACCGGTTTTCCCGGTAATCCGTATTTGGG (site CGAGAACCTCC)	0
CGAGTACCATGGACCGGTTTTCCCGGTAATCCGTATTTGGG (site CGAGCACCTCC)	0.0141
CGAGTACCATGGACCGGTTTTCCCGGTAATCCGTATTTGGG (site CGAGGACCTCC)	0.00419
CGAGTACCATGGACCGGTTTTCCCGGTAATCCGTATTTGGG (site CGAGTACCTCC)	0.0186
CGAGTGCCATGGACCGGTTTTCCCGGTAATCCGTATTTGTT (site CGAGTGCCTAA)	0.52
CGATAACCATGGACCGGTTTTCCCGGTAATCCGTATTTGGT (site CGATAACCTAC)	0
CGATACTCATGGACCGGTTTTCCCGGTAATCCGTATTTGCT (site CGATACTCTAG)	2.52
CGATACTCATGGACCGGTTTTCCCGGTAATCCGTATTTGCT (site CGATCATCTAG)	0
CGATAGACATGGACCGGTTTTCCCGGTAATCCGTATTTGCC (site AGATAGACTGG)	0
CGATAGACATGGACCGGTTTTCCCGGTAATCCGTATTTGCC (site CGATAGACTGG)	2.96
CGATAGACATGGACCGGTTTTCCCGGTAATCCGTATTTGCC (site GGATAGACTGG)	0
CGATAGACATGGACCGGTTTTCCCGGTAATCCGTATTTGCC (site TGATAGACTGG)	0
CGATAGCCATGGACCGGTTTTCCCGGTAATCCGTATTTGCT (site CGATAGCCTAG)	1.12
CGATATACATGGACCGGTTTTCCCGGTAATCCGTATTTGTA (site CGATATACTTA)	2.25
CGATATGCATGGACCGGTTTTCCCGGTAATCCGTATTTGGG (site CGATATGCTCC)	0.685
CGATCAACATGGACCGGTTTTCCCGGTAATCCGTATTTGGT (site CGATCAACTAC)	0.796
CGATCAACATGGACCGGTTTTCCCGGTAATCCGTATTTGGT (site CGATCATCTAG)	0
CGATCACCATGGACCGGTTTTCCCGGTAATCCGTATTTGCC (site CGATCACCTGG)	0
CGATCACCATGGACCGGTTTTCCCGGTAATCCGTATTTGCC (site CGATCATCTAG)	0

Sequence	recombinant UMI read abundance (log10)
CGATCACCATGGACCGGTTTTCCCGGTAATCCGTATTTGCT (site CGATCAACTAG)	0
CGATCACCATGGACCGGTTTTCCCGGTAATCCGTATTTGCT (site CGATCACCTAG)	0
CGATCACCATGGACCGGTTTTCCCGGTAATCCGTATTTGCT (site CGATCAGCTAG)	0
CGATCACCATGGACCGGTTTTCCCGGTAATCCGTATTTGCT (site CGATCATCTAG)	0
CGATCAGCATGGACCGGTTTTCCCGGTAATCCGTATTTGCA (site CGATCAGCTTG)	1.9
CGATCAGCATGGACCGGTTTTCCCGGTAATCCGTATTTGCA (site CGATCATCTAG)	0
CGATCAGCATGGACCGGTTTTCCCGGTAATCCGTATTTGCT (site CGATCAACTAG)	0
CGATCAGCATGGACCGGTTTTCCCGGTAATCCGTATTTGCT (site CGATCACCTAG)	0
CGATCAGCATGGACCGGTTTTCCCGGTAATCCGTATTTGCT (site CGATCAGCTAG)	1.61
CGATCAGCATGGACCGGTTTTCCCGGTAATCCGTATTTGCT (site CGATCATCTAG)	0
CGATCATCATGGACCGGTTTTCCCGGTAATCCGTATTTGGT (site CGATCATCTAA)	0.00543
CGATCATCATGGACCGGTTTTCCCGGTAATCCGTATTTGGT (site CGATCATCTAC)	1.58
CGATCATCATGGACCGGTTTTCCCGGTAATCCGTATTTGGT (site CGATCATCTAG)	0.495
CGATCATCATGGACCGGTTTTCCCGGTAATCCGTATTTGGT (site CGATCATCTAT)	1.08
CGATCGACATGGACCGGTTTTCCCGGTAATCCGTATTTGCT (site CGATCGACTAA)	0.3
CGATCGACATGGACCGGTTTTCCCGGTAATCCGTATTTGCT (site CGATCGACTAC)	0.00923
CGATCGACATGGACCGGTTTTCCCGGTAATCCGTATTTGCT (site CGATCGACTAG)	2.63
CGATCGACATGGACCGGTTTTCCCGGTAATCCGTATTTGCT (site CGATCGACTAT)	0.0395
CGATCGACATGGACCGGTTTTCCCGGTAATCCGTATTTGTC (site CGATCGACTAA)	0.00466
